# Data reported in patent publication US8088951B2, “Epigenetic mechanisms re-establish access to long-term memory after neuronal loss” (Massachusetts Institute of Technology, priority 2006, dated 2012).
# “Also recorded” adds a separate entry of the source.
# Assays:
# Type in all cases: in vivo
# H3 and H4 acetylation = experiment: Histone acetylation in hippocampal lysates of wild type mice (immunoblot); conditions: daily ip for 4 weeks
# Method: Immunoblotting and staining: Lysates for immunoblotting were prepared as described by Fischer et al. (3). To isolate histones, brain tissue was homogenized in TX-buffer (50 mM Tris HCL, 150 mM NACL, 2 mM EDTA, 1% Triton-100) and incubated at 4° C. for 15 min prior to centrifugation at 200 rpm for 10 min. After a wash-step in TX-buffer the pellet was dissolved in TX-buffer containing 0.2M HCl and incubated on ice for 30 min, before a second centrifugation at 10000 rpm for 10 min. The supernatant was either dialysed or directly used for immunoblotting. Antibodies were used in 1:1000 concentrations. All antibodies detecting histones and anti-PSD-95 were form Upstate (Lake Placid, N.Y.). Anti-synaptophysin (SVP38) was from Sigma. Anti-neuronal nuclei (neuN) and anti-growth associated protein (Gap43) were from Chemicon (Temecula, Calif.) and anti-N-cadherin, anti-β-catenin were from Santa Cruz (Santa Cruz, Calif.). Immunostaining was performed as described by Fischer et al. (3). Antibodies mentioned above were used in a 1:500 dilution. […]
# Mechanism underlying EE. […] Since histone acetylation, an epigenetic mechanism regulating gene expression via chromatin remodeling, has recently been implicated in synaptic plasticity and learning behavior (15-18), the induction of a transcriptional program by EE that leads to activation of plasticity genes was evaluated. […]
# C57BL/6J mice = experiment: Contextual fear conditioning (associative learning) in wild type mice; conditions: for freezing behavior during the memory test: test 24 h later
# Text: Learning tests: All behavioral testing is described in Fischer et al. (3).
# Mechanism underlying EE. Other than a few genes involved in synaptic function, relatively little is known about the mechanism underlying EE (12-14). Since histone acetylation, an epigenetic mechanism regulating gene expression via chromatin remodeling, has recently been implicated in synaptic plasticity and learning behavior (15-18), the induction of a transcriptional program by EE that leads to activation of plasticity genes was evaluated. Wild type mice were subjected to EE and hippocampal and cortical brain lysates were obtained 3, 24 h or 2 weeks later (n=3/group) by acid extraction and probed with antibodies detecting histone-tail modification that indicate active chromatin. Increases in hippocampal H3 (K-9, K14) and H4 (K-5) and in cortical H3 (K-9) and H4 (K-5) acetylation were observed. […] No changes in H4 acetylation were observed when the Ac-H4 (K,8,12,16) antibody was used, which is likely due to the fact that H4-K16 is a marker of condensed chromatin. EE induced hippocampal and cortical histone 3 (H3) and histone 4 (H4) acetylation and […] as soon as 3 hours after treatment (FIGS. 3a, b). […] To investigate whether inhibition of HDACs mimics the effects of EE, SB was administered daily [ip] into wild type mice for 4 weeks (FIG. 3c). […] Two days after the last injection mice were trained in the fear conditioning paradigm. […] Locomotor activity or basal anxiety was not altered in SB-injected mice (FIG. 8c).
# The effect of sodiumbutyrate injection on learning, basal anxiety, explorative behavior and brain plasticity. C57BL/6J mice were subjected to fear conditioning and injected intraperitoneally [ip] with 1.2 g/kg sodiumbutyrate (SB, n=8) or saline (vehicle; n=8) immediately afterwards. […] C57BL/6J mice were implanted with microcannulae into the lateral brain ventricles (icv) and injected with either 100 ng SB, 50 ng TSA or vehicle immediately after fear conditioning (n=8/group). […] C57BL/6J were daily injected [ip] with SB or saline (n=8/group) for 4 weeks before all mice were subjected to the elevated plus maze and open field test. […] Immunoblots were quantified relative to the optical density of the vehicle-group (set to 1). […] The analysis was performed as described under FIG. 1g.
# The effects of SAHA and MS-275, relative to sodium butyrate (SB), on the hippocampus dependent associative learning in wildtype mice.
# Mice were injected 10 days with either 5 mg/kg of MS275 or 25 mg/kg of UW_WT-I—06 or UW_WT-I—05 before training and memory tests as described above. […] Andorfer, C. et al. Cell-cycle reentry and cell death in transgenic mice expressing nonmutant human tau isoforms. J neurosci 25, 5446-5454 (2005). • 2. Santacruz, K. et al. Tau suppression in a neurodegenerative mouse model improves memory function. Science 309, 476-481 (2005). • 3. Fischer, A., Sananbenesi, F., Pang, P. T., Lu, B. & Tsai, L. H. Opposing roles of transient and prolonged expression of p25 in synaptic plasticity and hippocampus-dependent memory. Neuron 48, 825-838 (2005). • 4. Cruz, J. C. & Tsai, L. H. Jekyll and Hyde kinase: roles for Cdk5 in brain development and disease. Curr Opin Neurobiol. 14, 390-394 (2004). • 5. Cruz, J. C., Tseng, H. C., Goldman, J. A., Shih, H. & Tsai, L. H. Aberrant Cdk5 activation by p25 triggers pathological events leading to neurodegeneration and neurofibrillary tangles. Neuron 40, 471-83 (2003). • 6. Nithianantharajah, J. & Hannan, A. J. Enriched environments, experience-dependent plasticity and disorders of the nervous system. Nat Rev Neurosci 7, 697-709 (2006). • 7. Kim, J. J. & Fanselow, M. S. Modality-specific retrograde amnesia of fear. Science 256, 675-7 (1992). • 8. Gilmore, E. C. & Herrup, K. Neocortical cell migration: GABAergic neurons and cells in layers I and VI move in a cyclin-dependent kinase 5-independent manner. J Neurosci 21, 9690-700 (2001). • 9. […]
# [1] = system: MAP-2, synaptophysin (SVP), synaptic and dendritic marker proteins; experiment: Synaptic and dendritic markers in hippocampus of wild type mice (immunostaining, immunoblot); conditions: wild type mice injected for 4 weeks
# Method: (§1) Immunoblotting and staining: Lysates for immunoblotting were prepared as described by Fischer et al. (3). To isolate histones, brain tissue was homogenized in TX-buffer (50 mM Tris HCL, 150 mM NACL, 2 mM EDTA, 1% Triton-100) and incubated at 4° C. for 15 min prior to centrifugation at 200 rpm for 10 min. After a wash-step in TX-buffer the pellet was dissolved in TX-buffer containing 0.2M HCl and incubated on ice for 30 min, before a second centrifugation at 10000 rpm for 10 min. The supernatant was either dialysed or directly used for immunoblotting. Antibodies were used in 1:1000 concentrations. All antibodies detecting histones and anti-PSD-95 were form Upstate (Lake Placid, N.Y.). Anti-synaptophysin (SVP38) was from Sigma. Anti-neuronal nuclei (neuN) and anti-growth associated protein (Gap43) were from Chemicon (Temecula, Calif.) and anti-N-cadherin, anti-β-catenin were from Santa Cruz (Santa Cruz, Calif.). Immunostaining was performed as described by Fischer et al. (3). Antibodies mentioned above were used in a 1:500 dilution. Anti-MAP-2 antibody (Sigma) was used in a 1:200 dilution.
# (§2) LSMeta10 software (Zeiss; Jena, Germany) was used to calculate the mean SVP intensity. Brain sections with the strongest intensity were scanned first. All other images included in the analysis where scanned using the same microscope setting. […] Scale bar: 20 μm. py, pyramidal cell layer (FIG. 1g).
# The effect of sodiumbutyrate injection on learning, basal anxiety, explorative behavior and brain plasticity. C57BL/6J mice were subjected to fear conditioning and injected intraperitoneally [ip] with 1.2 g/kg sodiumbutyrate (SB, n=8) or saline (vehicle; n=8) immediately afterwards. […] C57BL/6J mice were implanted with microcannulae into the lateral brain ventricles (icv) and injected with either 100 ng SB, 50 ng TSA or vehicle immediately after fear conditioning (n=8/group). […] Immunoblots were quantified relative to the optical density of the vehicle-group (set to 1). […]
# [2] = system: MAP-2, synaptophysin (SVP), synaptic marker proteins; experiment: Synaptic plasticity markers in CK-p25 Tg mice (immunostaining, immunoblot)
# Method: as §1, §2
# For SB treatment, p25 was induced in 11 month old CK-p25 Tg mice for 6 weeks. Afterwards p25 expression was repressed and one group of CK-p25 Tg mice was subjected to daily sodiumbutyrate (SB) injection (1.2 g/kg) for 4 weeks, whereas the other group received saline injection. […] Representative images showing hippocampal MAP-2 staining are depicted in FIG. 7f. MAP-2 immunoreactivity of CK-p25 Tg mice treated with SB is increased when compared to the vehicle group. Representative images showing NeuN staining of the ACC.
compound,measurement,setting,value
"CCCC(=O)[O-].[Na+] [SB, sodiumbutyrate]",H3- and H4 acetylation in the hippocampus,H3 and H4 acetylation,robust increase
same,freezing during the memory test,"C57BL/6J mice; daily ip 1.2 g/kg for 4 weeks, trained two days after last injection, tested 24 h later, P<0.0001",more freezing during the memory test
same,freezing behavior during the memory test,"C57BL/6J mice; icv 100 ng SB or 50 ng TSA immediately after fear conditioning, P<0.0001",more freezing behavior than vehicle injected mice
same,freezing behavior during the memory test,"C57BL/6J mice; single ip 1.2 g/kg immediately after fear conditioning, P<0.0001",significantly more freezing behavior
same,associative learning,"C57BL/6J mice; wild type mice, intraperitoneal [ip] and intracerebroventricular [icv] injections",significantly facilitated associative learning
same,"associative learning, contextual fear conditioning paradigm","C57BL/6J mice; wildtype mice, chronic treatment for 10-21 days",facilitates contextual fear conditioning learning
same,"levels of synaptic and dendritic marker proteins (markers for brain plasticity), hippocampal lysates",[1]; immunoblots relative to vehicle,elevated levels; also recorded: Several markers for brain plasticity were increased
same,hippocampal MAP-2 immunoreactivity (IR),[1]; vs vehicle,increased MAP-2 immunoreactivity (IR)
same,hippocampal synaptophysin (SVP) IR,[1]; vs vehicle,increased SVP IR
same,levels of synaptic marker proteins (markers for synaptic plasticity and integrity),"[2]; CK-p25 Tg mice, daily 1.2 g/kg for 4 weeks, hippocampus and cortex, vs vehicle",increased levels of synaptic marker proteins; also recorded: several markers for synaptic plasticity and integrity were increased
same,hippocampal MAP-2 immunoreactivity,"[2]; CK-p25 Tg mice, daily 1.2 g/kg for 4 weeks, vs vehicle",increased
same,levels of synaptic marker proteins,"[2]; CK-p25 Tg mice, long-term memory experiment, vs vehicle group",elevated levels of synaptic marker proteins
same,MAP-IR in the ACC,"[2]; CK-p25 Tg mice, vs vehicle treated",MAP-IR was increased
same,hippocampal SVP-IR,"[2]; CK-p25 mice, vs vehicle-injected, P<0.0001",increased hippocampal SVP-IR
